System: DA neurons
Test: MPP+-induced reduction in DA uptake in neuron-enriched cultures
Format: cell-based
Conditions: MPP+ 0.25 μM, seven days, neuron-enriched cultures
Protocol: Mesencephalic neuron-glia cultures were seeded (5×10^5/well) in 24 well plates precoated with poly D-lysine. Thirty-six hours postseeding, 5-10 μM cytosine β-D-arabinofuranoside was added to the culture. After 2 days, the cytosine β-D-arabinofuranoside was removed and replaced with fresh media. Neuron-enriched cultures are 98% pure, as indicated by ICC staining with OX-42 and GFAP antibodies. Neuron-enriched cultures were treated 7 days post-seeding. For microglia add-back cultures, the microglia were plated on top of the neuron-enriched culture at 6 days postseeding, resulting in the addition of either 10% (500 μL of 1×10^5) or 20% (500 μL of 2×10^5) microglia. […]
Cells were incubated in Krebs-Ringer buffer (16 mM NaH2PO4, 1.2 mM MgSO4, 1.3 mM EDTA, […], for 21 min at 37° C. with 1 μM [^3H] DA. Nonspecific uptake was blocked for DA with 10 μM mazindole. After incubation, cells were washed three times with 1 mL/well of ice-cold Krebs-Ringer buffer. Cells were then lysed with 0.5 mL/well of 1 N NaOH and mixed with 15 mL of scintillation fluid. Radioactivity was measured on a scintillation counter, where specific [^3H] DA uptake was calculated by subtracting the mazindole.
To determine whether the neuroprotective effect of MMT was dependent on the presence of glial cells, the effects of MMT on the neuron-enriched cultures were determined. […]

How did the “reduction of DA uptake compared with control cultures” value turn out when C[n+]1ccc(-c2ccccc2)cc1 [MPP^+] was run?
The value was 31%.
